# How the values were obtained:
# [1] = tested on: SW1 (syngeneic NRAS mutant melanoma) cells; assay: SW1 melanoma growth with mucin and/or inulin; assay type: in vivo, C3H/HeOuJ mice; conditions: 3% mucin in drinking water and/or 15% inulin diet from 14 days prior to inoculation
# Description: FIG. 17A Growth of SW1 mouse melanoma cells in C3H/HeOuJ mice that were fed with 0 or 3% mucin in drinking water and/or a diet enriched with 15% inulin, starting 14 days prior to (and continued after) tumor inoculation (n=10). FIG. 17B. […] Graphs show the mean±s.e.m. *P<0.05, **P<0.005,***P<0.001, ****P<0.0001 by two-way ANOVA with Tukey's correction.
# Animals and tumor models. All experimental animal procedures were approved by the Institutional Animal Care and Use Committee of Sanford Burnham Prebys Medical Discovery Institute (SBP) and complied with all relevant ethical regulations for animal testing and research. C57BL/6 mice were obtained from Sanford Burnham Prebys Medical Discovery Institute. […] C3H/HeOuJ mice were purchased from Jackson laboratories. Male 6-8-week-old mice were used for all experiments. […] All mice were fed an autoclaved chow diet ad libitum (LabDiet 5K67, Purina Foods). […] Mouse selection for experiments was not formally randomized or blinded. For tumor growth experiments, mice were injected subcutaneously (s.c.) with 1×10^6 tumor cells. Tumor size was measured twice a week for calculation of tumor volume. Tumors were weighed at the time of excision.
# Mucin and inulin treatment. For mucin treatment, C57BL/6 mice were subjected to control or water supplemented with 3% mucin (Lee Biosolutions) prior to (14 days) and during tumor inoculation. […]
# [2] = tested on: intestinal epithelial cells; assay: qRT-PCR of inflammatory mediators in intestinal epithelial cells in vivo; set-up: species or system C57BL/6 mice; conditions: mucin 3% in drinking water, naïve mice, 2 weeks
# Description: FIG. 15 illustrates effects of mucin and inulin on expression of inflammatory mediators by intestinal epithelial cells in vivo. qRT-PCR data are shown for mRNA levels of the indicated inflammatory mediators in intestinal epithelial cells from mucin or inulin-treated mice (n=4). Data are representative of two independent experiments. Graphs show the mean s.e.m. *P<0.05, **P<0.005, one-way ANOVA with Tukey's correction.
# Isolation of intestinal epithelial cells. A 10 cm section of mouse small intestine was opened longitudinally, minced, washed in 150 mM NaCl containing 1 mM DTT, and then resuspended in dissociation buffer (130 mM NaCl, 10 mM EDTA, 10 mM Hepes [pH 7.4], 10% FCS, and 1 mM DTT). The sections were incubated at 37° C. for 30 min with vigorous shaking to release the epithelial cells from the lamina propria. The epithelial cell suspension was then carefully aspirated, centrifuged, and washed in ice-cold PBS.
# The effect of mucin and inulin on intestinal epithelial cells was evaluated in vivo. To this end, mucin (3% in drinking water) or inulin (15% in chow) were administered to naïve C57BL/6 mice for 2 weeks. Intestinal epithelial cells were isolated from small intestine and were assessed for the level of select cytokines and chemokines that are implicated in the activation of the immune response and anti-tumor immunity.
# [3] = tested on: serum cytokines and chemokines; assay: Serum cytokine and chemokine detection (LEGENDplex); assay type: in vivo, mice
# Description: Graphs show the mean±s.e.m. *P<0.05, ****P<0.0001 by two-tailed t-test or Mann-Whitney U test.
# Serum cytokine and chemokine detection. Cytokines and chemokines in the sera of naïve or tumor-bearing mice treated with or without mucin were quantified using the LEGENDplex™ mouse inflammation panel and mouse proinflammatory chemokine panel (BioLegend), respectively. All data were collected on an LSRFortessa (BD Biosciences) and analyzed using LEGENDplex™ software (BioLegend).
# Levels of circulating cytokines and chemokines were quantified in mucin-treated mice both before and after tumor inoculation.
# OT-I CD8+ T cells = assay: In vivo OT-I T cell assay with B16-OVA melanoma cells; set-up: species or system C57BL/6 mice; conditions: mucin-treated vs control mice
# Protocol: Right dot plots show gating of CD45.1+CD8+ cells (n=6). FIG. 4B Quantification of CD45.1+OT-I CD8+ T cell number in the tumor-draining lymph nodes (TdLN) and non-draining lymph nodes (ndLN) of WT C57BL/6 mice CD45.2+ mice that were injected with B16-OVA melanoma cells (n=10). Graphs show the mean s.e.m. *P<0.05, by two-tailed t-test or Mann-Whitney U test.
# In vivo OT-I T cell proliferation assay. […] After 24 h, the mice were injected s.c. with 1×10^6 B16-OVA melanoma cells and the mice were left for 7 days. The spleen, tumor-draining lymph nodes, and non-draining lymph nodes were harvested and analyzed by flow cytometry. The proliferation of OT-1 CD8+ T cells was assessed by analysis of CFSE dilution within the population by gating on CD45.1+CD8+ T cells.
# To assess the activation and homing of tumor-specific T cells in prebiotic-treated mice, an adoptive transfer model was used with OVA-specific OT-I transgenic T cells. OVA-specific OT-I CD8+, CD45.1+ T cells were transferred into untreated or mucin-treated WT mice. Mice were injected with OVA-expressing B16F10 tumor cells, and the frequency of OVA-specific OT-I T cells was monitoring in tumor draining and non-tumor-draining lymph nodes. OT-I CD8+ T cells were more abundant in the tumor-draining lymph nodes of mucin-treated mice, compared with control mice (FIG. 4A-B).
# fecal microbiota = assay: 16S sequencing of fecal microbiota, MC-38 colon cancer model; assay type: in vivo, C57BL/6 mice
# Protocol: Bacterial DNA extraction and 16S library preparation. […] Mouse fecal pellets were frozen on dry ice, and stored at −80° C. Bacterial DNA was extracted using the QIAmp Fast DNA Stool Mini Kit (Qiagen). To ensure efficient cell lysis, a 5-min bead-beating step using a Mini-Beadbeater-16 was included (Biospec Products, OK, USA). Library preparation for the Illumina MiSeq platform was performed by amplification of the V3-V4 region of the bacterial 16S ribosomal DNA gene using
# C. Adapter and barcode sequences for dual indices were used as described by Illumina. PCR clean up steps were performed with QIAquick 96-PCR Clean up kit (Qiagen, Germany), and library quantification was performed using a KAPA Library Quantification Kit for Illumina platforms (KAPA Biosystems, MA, USA). An Experion Automated Gel Electrophoresis System (Bio-Rad, CA, USA) was used to measure the DNA concentration and purity of the pooled libraries. The 16S libraries were sequenced at Novagene (Beijing, China) and the SBP sequencing Core.
# 16S sequencing data processing. The original FASTQ files from Illumina 250 basepair paired-end sequencing of the samples were processed using a novel 16S amplicon sequencing pipeline HiMap (http://github.com/taolonglab/himap; BioRxiv 565572). The output of HiMap is Operational Strain Unit (OSU) which contains one or more bacterial strains that best match the 16S sequence and cannot be further distinguished. The percentage similarity between the 16S sequence and the aligned region of 16S rRNA genes of the strains in the OSU is indicated. OSUs mapped to the same strains are grouped together (adding read counts) if percentage similarities are within 3%. Read counts are converted into relative abundance as described in HiMap. Log 10-transformed relative abundances were used for comparisons between samples under different experimental conditions.
# The effects of inulin on the microbiota were evaluated in a colon cancer model. […] MC-38 mouse colorectal cancer cells (1×10^6) were inoculated, and diets were continued after inoculation.
# (§1) P-values were calculated using paired one-tail Wilcoxon rank sum test.
# as §1
# [4] = B: 14 days after mucin feeding, A (prior to feeding) 0.001, p A vs B 0.001
# [5] = C: 20 days post-tumor cell inoculation with mucin feeding
# [6] = C: 20 days post-tumor cell inoculation with mucin feeding, p B vs C 0.006
# [7] = C: 20 days post-tumor cell inoculation with mucin feeding, p B vs C 0.007
# [8] = C: 20 days post-tumor cell inoculation with mucin feeding, p B vs C 0.011
substance,measurement,setting,value
mucin,SW1 tumor growth,[1],attenuated tumor growth
same,TNF-α mRNA level in intestinal epithelial cells,[2],elevated
same,"serum levels of IL-6, IL-1a, IL-10, IL-17A and IL-23","[3]; following tumor inoculation (10 days), compared with control",reduced levels
same,serum levels of IL-1a and CXCL13,"[3]; mucin feeding for two weeks, prior to tumor inoculation",Higher levels
same,serum levels of chemokines CXCL1 and CXCL13,"[3]; tumor-inoculated mice (10 days), compared with control",Lower serum levels
same,OT-I CD8+ T cells in tumor-draining lymph nodes,OT-I CD8+ T cells,more abundant
same,Abundance of phylotype group Clostridium cellulolyticum (93),fecal microbiota; [4],0.055
same,Abundance of phylotype group Dubosiella newyorkensis (93),fecal microbiota; [4],0.044
same,Abundance of phylotype group Staphylococcus saprophyticus (100),"fecal microbiota; B: 14 days after mucin feeding, A (prior to feeding) 0.001, p A vs B 0.005",0.057
same,Abundance of phylotype group Corynebacterium ammoniagenes (99),"fecal microbiota; B: 14 days after mucin feeding, A (prior to feeding) 0.001, p A vs B 0.006",0.054
same,Abundance of phylotype group Olsenella profusa (92),"fecal microbiota; B: 14 days after mucin feeding, A (prior to feeding) 0.001, p A vs B 0.023",0.118
same,Abundance of phylotype group Christensenella timonensis (88) / Anaerotruncus colihominis (88),"fecal microbiota; B: 14 days after mucin feeding, A (prior to feeding) 0.001, p A vs B 0.025",0.010
same,Abundance of phylotype group Gracilibacter thermotolerans (89) / Christensenella massiliensis (88),"fecal microbiota; B: 14 days after mucin feeding, A (prior to feeding) 0.001, p A vs B 0.036",0.006
same,Abundance of phylotype group Bifidobacterium pseudolongum (90),"fecal microbiota; B: 14 days after mucin feeding, A (prior to feeding) 0.001, p A vs B 0.049",0.025
same,Abundance of phylotype group Ruminococcus lactaris (97) / Clostridium oroticum (97),"fecal microbiota; B: 14 days after mucin feeding, A (prior to feeding) 0.004, p A vs B 0.0005",0.062
same,Abundance of phylotype group Clostridium hylemonae (98) / Muricomes intestini (98) / Clostridium oroticum (98) XIVa,"fecal microbiota; B: 14 days after mucin feeding, A (prior to feeding) 0.005, p A vs B 0.040",0.029
same,Abundance of phylotype group Desulfovibrio desulfuricans (95),"fecal microbiota; B: 14 days after mucin feeding, A (prior to feeding) 0.008, p A vs B 0.035",0.338
same,Abundance of phylotype group Clostridium cellulovorans (89) / Christensenella massiliensis (88),"fecal microbiota; B: 14 days after mucin feeding, A (prior to feeding) 0.009, p A vs B 0.048",0.045
same,Abundance of phylotype group Eubacterium dolichum (93),"fecal microbiota; B: 14 days after mucin feeding, A (prior to feeding) 0.011, p A vs B 0.025",0.106
same,Abundance of phylotype group Clostridium viride (96) / Intestinimonas butyriciproducens (96) / Pseudoflavonifractor capillosus (95),"fecal microbiota; B: 14 days after mucin feeding, A (prior to feeding) 0.013, p A vs B 0.001",0.062
same,Abundance of phylotype group Roseburia faecis (95),"fecal microbiota; B: 14 days after mucin feeding, A (prior to feeding) 0.013, p A vs B 0.009",0.124
same,Abundance of phylotype group Ihubacter massiliensis (98) / E. timonensis (96),"fecal microbiota; B: 14 days after mucin feeding, A (prior to feeding) 0.014, p A vs B 0.002",0.146
same,Abundance of phylotype group Clostridium xylanolyticum (98) / C. aerotolerans (97),"fecal microbiota; B: 14 days after mucin feeding, A (prior to feeding) 0.014, p A vs B 0.008",0.088
same,Abundance of phylotype group Harryflintia acetispora (95) / Anaerotruncus colihominis (93),"fecal microbiota; B: 14 days after mucin feeding, A (prior to feeding) 0.017, p A vs B 0.043",0.040
same,Abundance of phylotype group Staphylococcus lentus (100),"fecal microbiota; B: 14 days after mucin feeding, A (prior to feeding) 0.024, p A vs B 0.030",0.349
same,Abundance of phylotype group Roseburia intestinalis (95) / Ruminococcus faecis (95) / E. rectale (95),"fecal microbiota; B: 14 days after mucin feeding, A (prior to feeding) 0.029, p A vs B 0.003",0.113
same,Abundance of phylotype group Eubacterium dolichum (92),"fecal microbiota; B: 14 days after mucin feeding, A (prior to feeding) 0.045, p A vs B 0.00003",0.291
same,Abundance of phylotype group Murimonas intestini (97) / Clostridium celerecrescens (96) XIVa,"fecal microbiota; B: 14 days after mucin feeding, A (prior to feeding) 0.104, p A vs B 0.009",0.300
same,Abundance of phylotype group Anaerotaenia torta (96) / C. xylanolyticum (95),"fecal microbiota; B: 14 days after mucin feeding, A (prior to feeding) 0.168, p A vs B 1 × 10^−6",0.421
same,Abundance of phylotype group Olsenella profusa (95),"fecal microbiota; B: 14 days after mucin feeding, A (prior to feeding) 0.180, p A vs B 0.004",4.883
same,Abundance of phylotype group Clostridium cocleatum (99),"fecal microbiota; B: 14 days after mucin feeding, A (prior to feeding) 0.253, p A vs B 0.011",7.822
same,Abundance of phylotype group Muribaculum intesinale (92),"fecal microbiota; B: 14 days after mucin feeding, A (prior to feeding) 6.008, p A vs B 4 × 10^−7",17.058
same,Abundance of phylotype group Bifidobacterium pseudolongum (90),fecal microbiota; [5],0.006
same,Abundance of phylotype group Clostridium cellulolyticum (93),fecal microbiota; [5],0.055
same,Abundance of phylotype group Clostridium cellulovorans (89) / Christensenella massiliensis (88),fecal microbiota; [5],0.038
same,Abundance of phylotype group Clostridium cocleatum (99),fecal microbiota; [5],3.099
same,Abundance of phylotype group Clostridium hylemonae (98) / Muricomes intestini (98) / Clostridium oroticum (98) XIVa,fecal microbiota; [5],0.030
same,Abundance of phylotype group Desulfovibrio desulfuricans (95),fecal microbiota; [5],0.533
same,Abundance of phylotype group Eubacterium dolichum (92),fecal microbiota; [5],0.462
same,Abundance of phylotype group Eubacterium dolichum (93),fecal microbiota; [5],0.279
same,Abundance of phylotype group Gracilibacter thermotolerans (89) / Christensenella massiliensis (88),fecal microbiota; [5],0.020
same,Abundance of phylotype group Murimonas intestini (97) / Clostridium celerecrescens (96) XIVa,fecal microbiota; [5],0.462
same,Abundance of phylotype group Olsenella profusa (92),fecal microbiota; [5],0.068
same,Abundance of phylotype group Olsenella profusa (95),fecal microbiota; [5],3.256
same,Abundance of phylotype group Ruminococcus lactaris (97) / Clostridium oroticum (97),fecal microbiota; [5],0.060
same,Abundance of phylotype group Dubosiella newyorkensis (93),"fecal microbiota; C: 20 days post-tumor cell inoculation with mucin feeding, p B vs C 0.001",0.005
same,Abundance of phylotype group Corynebacterium ammoniagenes (99),fecal microbiota; [6],0.002
same,Abundance of phylotype group Harryflintia acetispora (95) / Anaerotruncus colihominis (93),fecal microbiota; [6],0.172
same,Abundance of phylotype group Clostridium viride (96) / Intestinimonas butyriciproducens (96) / Pseudoflavonifractor capillosus (95),fecal microbiota; [7],0.113
same,Abundance of phylotype group Muribaculum intesinale (92),fecal microbiota; [7],11.857
same,Abundance of phylotype group Roseburia intestinalis (95) / Ruminococcus faecis (95) / E. rectale (95),fecal microbiota; [7],0.407
same,Abundance of phylotype group Roseburia faecis (95),fecal microbiota; [8],0.555
same,Abundance of phylotype group Staphylococcus saprophyticus (100),fecal microbiota; [8],0.006
same,Abundance of phylotype group Christensenella timonensis (88) / Anaerotruncus colihominis (88),"fecal microbiota; C: 20 days post-tumor cell inoculation with mucin feeding, p B vs C 0.028",0.027
same,Abundance of phylotype group Staphylococcus lentus (100),"fecal microbiota; C: 20 days post-tumor cell inoculation with mucin feeding, p B vs C 0.034",0.033

# — patent publication US20220370553A1, “PREBIOTIC-INDUCED ANTI-TUMOR IMMUNITY” (Sanford Burnham Prebys Medical Discovery Institute, priority 2019, published 2022)
